# Like-named read-outs stand apart in the source and are kept apart here.
# Legend:
# MDR1 = experiment: MDR1/MDCK assay (Example 4); format: in vitro ADME; conditions: dog, MDCK-MDR1; for Papp A→B at 120 min, 5 μM / Papp B→A at 120 min, 5 μM: pH 7.4, 120 minutes; for efflux ratio at 120 min, 5 μM: (Papp B to A)/(Papp A to B)
# Description: The MDR1/MDCK assay is run at Absorption Systems. This assay is used to determine the blood-brain barrier (BBB) penetration potential of a test compound using MDR1-MDCK cell monolayers. Catalog number EA203.
# Substrate • Test compound at 5 μM in HBSSg with maximum DMSO concentration not greater than 1%. Assay System • Confluent monolayers of MDR1-MDCK cells, 7 to 11 days old. Assay Conditions • Receiver well with 1% BSA in modified Hanks buffer (HBSSg) • Apical and basolateral side at pH 7.4 • Dose two monolayers in each direction (N=2) • Dose apical side for (A to B) assessment • Dose basolateral side for (B to A) assessment • Sample both apical and basolateral sides at 120 minutes • Determine the concentrations of test compound using a generic LC-MS/MS method with a minimum 4 point calibration curve. Assay QC • The quality of the cell monolayer batch is verified using control compounds before monolayers are released for use • The quality of each monolayer used in the assay is verified by a TEER measurement and by calculating the Papp for a control compound. Solubility (SOL) 1% DMSO in PBS
# GSK3α [1] = target: T1, GSK3α (Homo sapiens (Human), UniProt P49840); experiment: Mobility shift microfluidics assay; format: biochemical
# Description: (§6) Reactions were terminated by the addition of 10 mM ethylenediaminetetraacetic acid (EDTA). Substrate and product were separated electrophoretically, and fluorescence intensity of the substrate and product was determined by Labchip EZ Reader II (Caliper Life Sciences). The kinase activity was measured as percent conversion. The reactions were performed in duplicate for each sample. […] The results were analyzed by Genedata Assay Analyzer. The percent inhibition was plotted against the compound concentration, and the IC50 value was determined from the logistic dose-response curve fitting. Values are the average of at least three experiments.
# GSK3β [2] = target: T2, GSK3β (Homo sapiens (Human), UniProt P49841); experiment: Mobility shift microfluidics assay; format: biochemical; conditions: 4.3 μM ATP, 60 minutes at room temperature
# Description: as §6
# [3] = Plasma protein binding (RED), mouse; format: in vitro ADME, mouse (CD-1); conditions: CD-1, 5 hours at 37° C., read-out: Plasma Protein Binding (Mouse, % bound) (converted)
# [4] = Liver microsomal stability, mouse; format: in vitro ADME, mouse (CD-1); conditions: 1 μM, 60 minutes at 37° C.
# Description: (§1) Stability of compound in liver microsomes was tested in duplicate by incubating compound at 1 μM for 60 minutes at 37° C. Compound level at 60 minutes was compared to level at 0 minutes, and percent remaining was calculated. Order by selecting Microsomal Stability in Prometheus, checking boxes for desired species.
# (§2) Available species: human, mouse (CD-1), and rat (Sprague-Dawley). Compound requirements: 5 μL of a 10 mM DMSO solution. Incubation time: 60 minutes at 37° C. Test Concentration: 1 μM.
# (§3) Microsomes with NADPH without compound-matrix interference. Microsomes plus compound without NADPH-non-enzymatic instability.
# [5] = Plasma protein binding (RED), human; format: in vitro ADME; conditions: 5 hours at 37° C., read-out: Plasma Protein Binding (Human, % bound) (converted)
# Description: (§4) Stability of compound in plasma was tested in duplicate by incubating compound at 5 μM for 5 hours at 37° C. Compound level at 5 hours was compared to level at 0 hours, and percent remaining was calculated. Binding to plasma proteins was tested in duplicate by incubating compound in plasma at 5 μM for 5 hours at 37° C. in the Rapid Equilibrium Dialysis (RED) Device. Compound level in plasma compartment was compared to compound level in buffer compartment to calculate percent bound. Order by selecting Plasma Stability and Plasma Protein Binding in Prometheus, checking boxes for desired species.
# (§5) Available species: human, mouse (CD-1), and rat (Sprague-Dawley). Compound requirements: 15 μL of a 10 mM DMSO solution. Incubation time: 5 hours at 37° C. Test Concentration: 5 μM.
# Plasma stability, human = format: in vitro ADME; conditions: human plasma, 5 μM, 5 hours at 37° C.
# Description: as §4, §5
# Solubility in PBS = conditions: 23 °C, aqueous buffer, thermodynamic from solid
# Description: Solubility of compound was tested in triplicate by diluting a 10 mM DMSO solution with PBS. Maximum concentration of compound in solution was 100 μM.
# Solubility of compound was tested in triplicate by drying down a 10 mM DMSO solution and then attempting to reconstitute in 100% PBS. Maximum concentration of compound in solution was 500 μM.
# Compound requirements (1% DMSO in PBS): 30 μL of a 10 mM DMSO solution. Compound requirements (PBS-only): 60 μL of a 10 mM DMSO solution. Equilibration time: 18 hours at room temperature.
# [6] = Liver microsomal stability, human; format: in vitro ADME; conditions: 1 μM, 60 minutes at 37° C.
# Description: as §1, §2, §3
# Plasma stability, mouse = format: in vitro ADME, mouse (CD-1)
# Description: as §4, §5
# GSK3β [7] = target: T2, GSK3β; experiment: GSK3 beta biochemical assay (TR-FRET)
# Description: (§7) 1 nM enzyme, 200 nM biotinylated peptide
# (§8) 4 μM ATP (GSK3 alpha) or 2 μM ATP (GSK3 beta)
# (§9) The reaction volume is 10 μL, and the final percent DMSO is 1%. The total volume of DMSO is therefore 100 nL. It is critical that the percentage of DMSO be controlled and consistent across the plate. […] The High control is with all assay components but no inhibitor, the low control is with all assay components but no enzyme.
# (§10) Make 2× detection reagents in Invitrogen TR-FRET detection buffer for final 20 nM Strepavidin-d2, 1 nM Tb^2+-pSer641 antibody (using 20 μl as final volume). 2× detection=40 nM Strepavidin-d2, 2 nM Tb^2+-pSer641 antibody.
# (§11) XLFit is used for results which are archived into a database. The data is normalized as a percentage of uninhibited control minus max inhibited controls.
# GSK3α [8] = target: T1, GSK3α; experiment: GSK3 alpha biochemical assay (TR-FRET)
# Description: as §7, §8, §9, §10, §11
# [9] = mouse plasma, 5 μM, 5 hours at 37° C.
# [10] = GSK3β TR-FRET BIOCHEMICAL (TR-FRET) GMean IC50, 2 μM ATP (Km), 100 min at room temperature
# [11] = GSK3α TR-FRET BIOCHEMICAL (TR-FRET) GMean IC50, 4 μM ATP (Km), 100 min at room temperature
# T1 sequence (P49840 whole entry): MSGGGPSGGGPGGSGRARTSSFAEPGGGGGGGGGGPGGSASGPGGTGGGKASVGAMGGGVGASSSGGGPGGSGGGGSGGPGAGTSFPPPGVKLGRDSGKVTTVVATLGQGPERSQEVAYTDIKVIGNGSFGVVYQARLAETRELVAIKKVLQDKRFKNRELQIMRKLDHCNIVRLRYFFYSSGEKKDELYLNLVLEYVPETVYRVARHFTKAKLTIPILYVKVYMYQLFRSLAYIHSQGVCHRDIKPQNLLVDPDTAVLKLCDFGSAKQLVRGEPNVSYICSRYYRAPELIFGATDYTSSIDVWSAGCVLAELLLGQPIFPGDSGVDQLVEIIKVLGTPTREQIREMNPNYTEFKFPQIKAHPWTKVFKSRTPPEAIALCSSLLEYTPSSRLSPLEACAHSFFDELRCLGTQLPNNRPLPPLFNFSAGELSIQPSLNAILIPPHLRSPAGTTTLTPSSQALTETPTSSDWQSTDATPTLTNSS
# T2 sequence (P49841 whole entry): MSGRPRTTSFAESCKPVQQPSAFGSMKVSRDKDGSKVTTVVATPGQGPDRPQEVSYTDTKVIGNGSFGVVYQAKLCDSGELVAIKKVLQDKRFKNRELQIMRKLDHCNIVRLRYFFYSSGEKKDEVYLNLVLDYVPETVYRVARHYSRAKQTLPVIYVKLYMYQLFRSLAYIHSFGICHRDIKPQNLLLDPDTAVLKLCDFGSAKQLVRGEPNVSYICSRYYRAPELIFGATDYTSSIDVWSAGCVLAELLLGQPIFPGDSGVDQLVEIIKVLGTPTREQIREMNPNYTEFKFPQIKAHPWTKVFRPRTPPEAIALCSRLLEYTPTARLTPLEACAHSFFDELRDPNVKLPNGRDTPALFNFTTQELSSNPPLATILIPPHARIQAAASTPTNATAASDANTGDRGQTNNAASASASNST
Compound,IC50 (GSK3α [1]) [nM],IC50 (GSK3β [2]) [nM],IC50 (GSK3β [7]) [nM],IC50 (GSK3α [8]) [nM],other results
Cc1c[nH]c(-c2cnc(NCCNc3ccc(C#N)cn3)nc2-c2ccc(Cl)cc2Cl)n1 [drawing 185],,,,,"Papp A→B at 120 min, 5 μM (MDR1): 6.5 ×10⁻⁶ cm/s; Papp B→A at 120 min, 5 μM (MDR1): 64.2 ×10⁻⁶ cm/s"
"CC[C@]1(c2cccc(Cl)c2)C2=C(CC(C)(C)CC2=O)Nc2ncsc21 (single isomer, unassigned)",> 30000,> 30000,,,
CC[C@@]1(c2ccccc2)C2=C(CC(C)(C)CC2=O)Nc2ncsc21 [drawing 173],,,,,"fraction unbound at 5 h, 5 μM [3]: 0.074; Mouse Liver Microsomal Stability, % remaining [4]: 5.6%; fraction unbound at 5 h, 5 μM [5]: 0.049; Plasma Stability (Human, % remaining) (Plasma stability, human): 100%; solubility thermodynamic at 18 h (Solubility in PBS): 17 µM; Human Liver Microsomal Stability, % remaining [6]: 6.6%; Plasma Stability (Mouse, % remaining) (Plasma stability, mouse; [9]): 100%"
CCC1(c2ccccc2)C2=C(CC(CC(C)C)CC2=O)Nc2ncsc21 (stereo not drawn) [Compound 10],,,644,189,
CCC1(c2cccc(Br)c2)C2=C(CC(C)(C)CC2=O)Nc2ncsc21 (stereo not drawn) [Compound 14],,,234,41,
CC[C@]1(c2ccccc2)C2=C(CC3(CCCCC3)CC2=O)Nc2ncsc21,3660,1890,,,
"CC[C@]1(c2cccc(F)c2)C2=C(CC(C)(C)CC2=O)Nc2ncsc21 (single isomer, unassigned)",> 30000,> 30000,,,
[2H]c1nc2c(s1)C(CC)(c1ccccc1)C1=C(CC(C)(C)CC1=O)N2 (stereo not drawn) [Compound 18],,,,,IC50 (GSK3β [7]; [10]): 500 nM; IC50 (GSK3α [8]; [11]): 118 nM
CC[C@]1(c2ccccc2)C2=C(CC(C)(C)CC2=O)Nc2ncsc21,> 30000,> 30000,,,
"CC[C@@]1(c2cccc(Cl)c2)C2=C(CC(C)(C)CC2=O)Nc2ncsc21 (single isomer, unassigned)",293,1180,,,
CCCC1CC(=O)C2=C(C1)Nc1ncsc1C2(CC)c1ccccc1 (stereo not drawn) [Compound 9],,,418,184,
CC[C@@]1(c2ccccc2)C2=C(CC(C)(C)CC2=O)Nc2ncsc21 [drawing 182],,,,,"Papp A→B at 120 min, 5 μM (MDR1): 24.2 ×10⁻⁶ cm/s; Papp B→A at 120 min, 5 μM (MDR1): 62.1 ×10⁻⁶ cm/s; efflux ratio at 120 min, 5 μM (MDR1): 2.6"
CC[C@@]1(c2cccc(F)c2)C2=C(CC(C)(C)CC2=O)Nc2ncsc21 [drawing 174],,,,,"fraction unbound at 5 h, 5 μM [3]: 0.043; Mouse Liver Microsomal Stability, % remaining [4]: 3.9%; fraction unbound at 5 h, 5 μM [5]: 0.029; Plasma Stability (Human, % remaining) (Plasma stability, human): 99.2%; solubility thermodynamic at 18 h (Solubility in PBS): 100 µM; Human Liver Microsomal Stability, % remaining [6]: 2.4%; Plasma Stability (Mouse, % remaining) (Plasma stability, mouse; [9]): 96.0%"
CC1(C)CC(=O)C2=C(C1)Nc1n[nH]cc1[C@]2(C)c1ccccc1 [drawing 178],,,,,"Mouse Liver Microsomal Stability, % remaining [4]: 100%; Plasma Stability (Human, % remaining) (Plasma stability, human): 100%; solubility thermodynamic at 18 h (Solubility in PBS): > 500 µM; Human Liver Microsomal Stability, % remaining [6]: 100%; Plasma Stability (Mouse, % remaining) (Plasma stability, mouse): 96.6%"
CC1(C)CC(=O)C2=C(C1)Nc1ncsc1C21CCCc2ccccc21 (stereo not drawn) [Compound 16],,,> 5000,> 5000,
"CCC1(c2ccccc2)C2=C(CC(C)(C)CC2=O)Nc2ncsc21 (single isomer, unassigned) [Compound 1-E1, 9-Ethyl-6,6-dimethyl-9-phenyl-5,6,7,9-tetrahydrothiazolo[4,5-b]quinolin-8(4H)-one]",,,,,IC50 (GSK3β [7]; [10]): > 5000 nM; IC50 (GSK3α [8]; [11]): > 5000 nM
CCC1(c2ccccc2)C2=C(CC(C)CC2=O)Nc2ncsc21 (stereo not drawn) [Compound 6],,,684,194,
CCC1(c2ccccc2)C2=C(Nc3ncsc31)C(C)CC(C)C2=O (stereo not drawn) [Compound 2],,,353,130,
CC[C@@]1(c2cccc(Cl)c2)C2=C(CC(C)(C)CC2=O)Nc2ncsc21,,,,,"fraction unbound at 5 h, 5 μM [3]: 0.023; Mouse Liver Microsomal Stability, % remaining [4]: 11.1%; fraction unbound at 5 h, 5 μM [5]: 0.018; Plasma Stability (Human, % remaining) (Plasma stability, human): 98.7%; solubility thermodynamic at 18 h (Solubility in PBS): 37 µM; Human Liver Microsomal Stability, % remaining [6]: 0.0%; Plasma Stability (Mouse, % remaining) (Plasma stability, mouse; [9]): 98.1%"
CCC1(c2ccccc2)C2=C(CCCC2=O)Nc2ncsc21 (stereo not drawn) [Compound 11],,,> 1670,419,
CC[C@@]1(c2ccccc2)C2=C(CC3(CCCCC3)CC2=O)Nc2ncsc21,155,447,,,
CC[C@@]1(c2cccc(F)c2)C2=C(CC(C)(C)CC2=O)Nc2ncsc21 [drawing 159],599,2270,,,

Compound,IC50 (GSK3α [1]) [nM],IC50 (GSK3β [2]) [nM],IC50 (GSK3β [7]) [nM],IC50 (GSK3α [8]) [nM],other results
CC1(C)CC(=O)C2=C(C1)Nc1ncsc1C21CCCCc2ccccc21 (stereo not drawn) [Compound 17],,,> 5000,> 5000,
CC1(C)CC(=O)C2=C(C1)Nc1ncsc1[C@]2(C)c1cccc(F)c1,203,455,,,
CCC1(c2ccc(C)cc2)C2=C(CC(C)(C)CC2=O)Nc2ncsc21 (stereo not drawn) [Compound 13],,,619,187,
CCC1(c2ccccc2)C2=C(CC(C)(C)CC2=O)Nc2nc(C)sc21 (stereo not drawn) [Compound 15],,,> 5000,> 5000,
CCC1(c2ccccc2)C2=C(CC(C)(C)CC2=O)Nc2nc(Cl)sc21 (stereo not drawn) [Compound 19],,,4350,1990,
CC1(C)CC(=O)C2=C(C1)Nc1ncsc1[C@@]2(C)c1ccccc1,18500,28600,,,
CC[C@@]1(c2ccccc2)C2=C(CC(C)(C)CC2=O)Nc2n[nH]cc21 [drawing 170],,507,,,
CCC1(c2ccccc2)C2=C(CC3(CCCC3)CC2=O)Nc2ncsc21 (stereo not drawn) [Compound 5],,,366,80,
CC[C@]1(c2cccc(OC)c2)C2=C(CC(C)(C)CC2=O)Nc2ncsc21,10600,10500,,,
CCC1(c2ccccc2)C2=C(CC(C(C)C)CC2=O)Nc2ncsc21 (stereo not drawn) [Compound 8],,,927,365,
CC1(C)CC(=O)C2=C(C1)Nc1ncsc1[C@@]2(C)c1cccc(F)c1,6230,12500,,,
CCC1(c2ccccc2)C2=C(Nc3ncsc31)C(C)(C)CCC2=O (stereo not drawn) [Compound 4],,,627,174,
CC[C@@]1(c2ccccc2)C2=C(CC(C)(C)CC2=O)Nc2n[nH]cc21 [drawing 184],,,,,"Papp A→B at 120 min, 5 μM (MDR1): 1.26 ×10⁻⁶ cm/s; Papp B→A at 120 min, 5 μM (MDR1): 57.7 ×10⁻⁶ cm/s"
CC1(C)CC(=O)C2=C(C1)Nc1ncsc1[C@]2(C)c1ccccc1 [drawing 181],,,,,"Papp A→B at 120 min, 5 μM (MDR1): 28.4 ×10⁻⁶ cm/s; Papp B→A at 120 min, 5 μM (MDR1): 62.8 ×10⁻⁶ cm/s; efflux ratio at 120 min, 5 μM (MDR1): 2.2"
CC1(C)CC(=O)C2=C(C1)Nc1n[nH]cc1[C@]2(C)c1ccccc1 [drawing 183],,,,,"Papp A→B at 120 min, 5 μM (MDR1): 1.82 ×10⁻⁶ cm/s; Papp B→A at 120 min, 5 μM (MDR1): 66.1 ×10⁻⁶ cm/s"
CC[C@@]1(c2cccc(C)c2)C2=C(CC(C)(C)CC2=O)Nc2ncsc21 [drawing 163],69,245,,,
CCC1(c2ccccc2)C2=C(CCC(C)(C)C2=O)Nc2ncsc21 (stereo not drawn) [Compound 3],,,951,254,
CC[C@@]1(c2ccccc2)C2=C(CC(C)(C)CC2=O)Nc2ncsc21 [drawing 157],14,65,,,
CCC1CC(=O)C2=C(C1)Nc1ncsc1C2(CC)c1ccccc1 (stereo not drawn) [Compound 7],,,592,171,
CC1(C)CC(=O)C2=C(C1)Nc1ncsc1[C@]2(C)c1ccccc1 [drawing 153],238,384,,,
"CC[C@@]1(c2cccc(OC)c2)C2=C(CC(C)(C)CC2=O)Nc2ncsc21 (single isomer, unassigned)",24,110,,,
